From ChEMBL document CHEMBL1124125, “6-(Alkylamino)-3-aryl-1,2,4-triazolo[3,4-a]phthalazines. A new class of benzodiazepine receptor ligands” (J Med Chem, 1988)

Columns and labels:
[1] = molecular target: GABA-A receptor; anion channel; experiment: Inhibition of [3H]diazepam binding to GABA-A central benzodiazepine receptor of rat brain homogenate
Mus musculus [2] = experiment: Dose that prevented tonic extensor seizures and death in 50% of the mice.(ip); type: functional
Mus musculus [3] = experiment: Antagonism of Diazepam muscle relaxant effect by compound (60 mg/kg, ip) was measured as the ratio of fallen/treated mice.; type: functional
[4] = Lethal dose when given intraperitoneally in mice; type: toxicity, organism-based; settings: mouse, in vivo, ip
[5] = molecular target: GABA-A receptor; anion channel (Rattus norvegicus) (UniProt O09028+P15431+P18506+P18508+P19969+P20236+P23574+P23576+P28471+P28473+P30191+P62813+P63079+P63138+Q91ZM7+Q9ES14); experiment: GABA ratio (IC50/IC50 in the presence of 10e-4 GABA).; type: protein-complex assay
Mus musculus [6] = experiment: (§1) Anticonvulsant activity of the compound when lethal dose of strychnine given subcutaneously in mouse; type: ADME, organism-based; settings: in vivo, sc
Mus musculus [7] = experiment: Activity was measured by rotarod test by intraperitoneal administration in mouse.; type: functional; settings: ip
Mus musculus [8] = organism: Mus musculus; experiment: Anticonvulsant activity of the compound when maximal electroshock is induced in mouse; type: functional
Mus musculus [9] = organism: Mus musculus; experiment: Anticonvulsant activity when maximal electroshock is induced in mouse; type: functional
Mus musculus [10] = experiment: (§2) Anticonvulsant activity when lethal dose of strychnine given subcutaneously in mouse; type: ADME, organism-based; settings: in vivo, sc
Rattus norvegicus [11] = experiment: Activity was measured by rotarod test by peroral administration in rat; type: functional; settings: po
Mus musculus [12] = experiment: Anticonvulsant activity when bicuculline given subcutaneously in mouse; type: functional; settings: sc
Rattus norvegicus [13] = experiment: Conditioned Avoidance response activity (CR2) at 20 mg/kg (i.p.) (No. of rats with blocked response/No. of treated rats); type: functional; settings: route intraperitoneal
Rattus norvegicus [14] = experiment: Conditioned Avoidance response activity (CR2) at 10 mg/kg (i.p.) (No. of rats with blocked response/No. of treated rats); type: functional; settings: route intraperitoneal
Rattus norvegicus [15] = experiment: Minimal effective dose (MED, ip) that significantly increased the number of shocks (anticonflict); type: functional; settings: read-out: MED
Mus musculus [16] = experiment: Anticonvulsant activity of the compound when bicuculline given subcutaneously in mouse; type: functional; settings: sc
Mus musculus [17] = experiment: Effective dose on mouse for motility after intraperitoneal administration.; type: functional
Mus musculus [18] = experiment: as §1; type: functional; settings: sc
Mus musculus [19] = experiment: Effective dose on mouse for motor coordination after intraperitoneal administration.; type: functional
Mus musculus [20] = experiment: Minimal effective dose on mouse for motor coordination after intraperitoneal administration.; type: functional; settings: ip, read-out: MED
Rattus norvegicus [21] = experiment: Effective dose on rat for motor coordination after intraperitoneal administration.; type: functional
Rattus norvegicus [22] = experiment: Effective dose on rat for motility after intraperitoneal administration.; type: functional
Rattus norvegicus [23] = experiment: Minimal effective dose on rat for motility after intraperitoneal administration.; type: functional; settings: ip, read-out: MED
Rattus norvegicus [24] = experiment: Minimal effective dose on rat for body tone after intraperitoneal administration.; type: functional; settings: ip, read-out: MED
Mus musculus [25] = experiment: Effective dose on mouse for body tone after intraperitoneal administration.; type: functional
Mus musculus [26] = experiment: Minimal effective dose on mouse for motility after intraperitoneal administration.; type: functional; settings: ip, read-out: MED
Rattus norvegicus [27] = experiment: Effective dose on rat for body tone after intraperitoneal administration.; type: functional
Mus musculus [28] = experiment: Minimal effective dose on mouse for mortality after intraperitoneal administration.(1/3 animals died); type: functional; settings: ip, read-out: MED
Mus musculus [29] = experiment: Minimal effective dose on mouse for body tone after intraperitoneal administration.; type: functional; settings: ip, read-out: MED
Rattus norvegicus [30] = experiment: Minimal effective dose on rat for motor coordination after intraperitoneal administration.; type: functional; settings: ip, read-out: MED
Rattus norvegicus [31] = experiment: Minimal effective dose on rat for mortality after intraperitoneal administration. (1/3 animals died); type: functional; settings: ip, read-out: MED
Mus musculus [32] = experiment: as §2; settings: sc
Mus musculus [33] = experiment: Antagonism of Diazepam muscle relaxant effect by compound (3 mg/kg, ip) was measured by the fallen/treated mice.; type: functional
Rattus norvegicus [34] = experiment: Minimal effective dose (MED) that significantly increased the number of shocks.(ip); settings: read-out: MED

| Compound | Ki [1] | ED50 (Mus musculus [2]) | LD50 [4] | Ratio [5] | ED50 (Mus musculus [7]) | ED50 (Mus musculus [8]) | ED50 (Mus musculus [9]) | ED50 (Rattus norvegicus [11]) | ED50 (Mus musculus [12]) | CR2 (Rattus norvegicus [14]) | minimal effective dose (Rattus norvegicus [15]) | further results |
| --- | --- | --- | --- | --- | --- | --- | --- | --- | --- | --- | --- | --- |
| COc1ccc(-c2nnc3c4ccccc4c(N4CCCC4)nn23)cc1 | 3.9 nM | > 100 mg/kg | 600 mg/kg | 1.1 |  |  |  |  |  |  |  | Fallen/treated (Mus musculus [3]): 5 |
| Cc1nnc2ccc(-c3cccc(C(F)(F)F)c3)nn12 [CI-218872] |  |  |  |  | 10 mg/kg | 30 mg/kg |  |  |  |  |  | ED50 (Mus musculus [6]): 30 mg/kg |
| CNC1=Nc2ccc(Cl)cc2C(c2ccccc2)=[N+]([O-])C1 [CHLORDIAZEPOXIDE] |  |  |  |  | 11 mg/kg |  | 23 mg/kg | 68.4 mg/kg | 4.7 mg/kg |  |  | ED50 (Mus musculus [10]): 7.5 mg/kg |
| COCCN(CCOC)c1nn2c(-c3ccc(OC)cc3)nnc2c2ccccc12 | 2.6 nM | 6.2 mg/kg | 300 mg/kg | 1.83 | 60 mg/kg | 50 mg/kg |  | 300 mg/kg |  | 4 block/treat | 3.5 mg/kg | CR2 (Rattus norvegicus [13]): 10 block/treat; ED50 (Mus musculus [16]): 4 mg/kg; ED (Mus musculus [17]): 60 mg/kg; ED50 (Mus musculus [18]): 50 mg/kg; ED (Mus musculus [19]): 60 mg/kg; minimal effective dose (Mus musculus [20]): 6 mg/kg; ED (Rattus norvegicus [21]): 600 mg/kg; ED (Rattus norvegicus [22]): 1000 mg/kg; minimal effective dose (Rattus norvegicus [23]): 300 mg/kg; minimal effective dose (Rattus norvegicus [24]): 300 mg/kg; ED (Mus musculus [25]): 100 mg/kg; minimal effective dose (Mus musculus [26]): 10 mg/kg; ED (Rattus norvegicus [27]): 600 mg/kg; minimal effective dose (Mus musculus [28]): 300 mg/kg; minimal effective dose (Mus musculus [29]): 6 mg/kg; minimal effective dose (Rattus norvegicus [30]): 100 mg/kg; minimal effective dose (Rattus norvegicus [31]): 1000 mg/kg |
| CN1C(=O)CN=C(c2ccccc2)c2cc(Cl)ccc21 [DIAZEPAM] |  |  |  |  | 1 mg/kg |  | 14.2 mg/kg | 15 mg/kg | 1.4 mg/kg | 5 block/treat | 0.25 mg/kg | ED50 (Mus musculus [32]): 3 mg/kg; Fallen/treated (Mus musculus [33]): 8; minimal effective dose (Rattus norvegicus [34]): 3 mg/kg |
